Legend:
AMPA receptor [1] = test: Patch clamp electrophysiology assay (glutamate-induced whole-cell current in cultured cortical neurons); format: cell-based; settings: Concentration at which glutamate induced current is increased by 100%; 500 μM glutamate, rat cortical neurons
Experimental: Cortical cells were prepared from day 18-19 embryonic Sprague-Dawley rats and recorded after 3 days in culture. The extracellular solution (ECS) contained (in mM): NaCl (145), KCl (5.4), HEPES (10), MgCl2 (0.8), CaCl2 (1.8), glucose (10), sucrose (30); pH. 7.4. In order to block the voltage-gated sodium currents, 40 nM TTX was added to the recording solution. The intracellular solution contained (in mM): K-gluconate (140), HEPES (20), EGTA (1.1), phosphocreatine (5), MgATP (3), GTP (0.3), MgCl2 (5), and CaCl2 (0.1); pH: 7.2. All test compound and glutamate solutions were made-up in the extracellular solution.
The whole-cell current was measured with patch-clamp amplifier (Axopatch 200B), filtered at 2 kHz, digitized at 5 kHz and recorded on a PC with pClamp 8. The cells were voltage-clamped at −80 mV. Solutions were applied by DAD-12 system. A baseline response for each cell was recorded using a I s pulse of 500 μM glutamate dissolved in ECS. Responses to test compound were then determined by application of a 10 s pulse of test compound followed by a 1 s pulse of the same concentration of test compound plus 500 μM glutamate and then 10 s of saline. This pulse sequence was repeated until a stable reading was obtained, or until sufficient data points were measured to allow extrapolation to a calculated maximum change.
The mean value of plateau current between 600 ms to 900 ms after application of glutamate or test compound plus glutamate was calculated and used as the parameter to measure the drug effect. The plateau responses in the presence of varying concentrations of test compound were divided by the baseline response in order to calculate the percentage increase. Compounds are deemed active in this test if, at a test concentration of 3 μM or less, they produce a greater than 100% increase in the value of the steady-state current measured due to application of glutamate alone. The concentration at which the glutamate induced current is increased by 100% is commonly referred to as the EC2x value.

AMPA receptors = test: Rat hippocampal slice assay (field EPSP in CA1); format: cell-based
Experimental: (§1) In another test, excitatory responses (field EPSPs) were measured in hippocampal slices, which were maintained in a recording chamber continuously perfused with artificial cerebrospinal fluid (ACSF). During a 15-30 minute interval, the perfusion medium was switched to one containing various concentrations of the test compounds. Responses collected immediately before and at the end of drug perfusion were superimposed in order to calculate the percent increase in EPSP amplitude.
The field EPSP (excitatory post-synaptic potential) recorded in field CA1 after stimulation of CA3 axons is known to be mediated by AMPA receptors, which are present in the synapses (Kessler et al., Brain Res. 560: 337-341 (1991)). Drugs that selectively block the receptor selectively block the field EPSP (Muller et al., Science, supra). […] These effects are mirrored in the field EPSP (see, for example, Staubli et al., Psychobiology, supra; Xiao et al., Hippocampus, supra; Staubli et al., Hippocampus 2: 4958 (1992)).
To obtain data for the activity of invention compounds on synaptic responses, a bipolar nichrome stimulating electrode was positioned in the dendritic layer (stratum radiatum) of the hippocampal subfield CA1 close to the border of subfield CA3, as described in Example 30. Current pulses (0.1 msec) through the stimulating electrode activate a population of the Schaffer-commissural (SC) fibers, which arise from neurons in the subdivision CA3 and terminate in synapses on the dendrites of CA1 neurons. Activation of these synapses causes them to release the transmitter glutamate. Glutamate binds to post-synaptic AMPA receptors, which then transiently open an associated ion channel and permit a sodium current to enter the postsynaptic cell. This current results in a voltage in the extracellular space (the field EPSP), which is recorded by a high impedance recording electrode positioned in the middle of the stratum radiatum of CA1.
The intensity of the stimulation current was adjusted to produce half-maximal EPSPs (typically about 1.5-2.0 mV). Paired stimulation pulses were given every 40 sec with an interpulse interval of 200 msec, as described further in Example 30.
as §1, with “Hippocampal slices” for “In another test, excitatory responses (field EPSPs) were measured in hippocampal slices, which”, “During” for “During a”, “intervals,” for “interval,”

AMPA receptor [2] = test: In vivo electrophysiology (field EPSP in dentate gyrus of anesthetized animals); parameters: species or system rat
Experimental: The physiological effects of invention compounds were tested in vivo in anesthetized animals according to the following procedures.
Animals are maintained under anesthesia by phenobarbital administered using a Hamilton syringe pump. Stimulating and recording electrodes are inserted into the perforant path and dentate gyrus of the hippocampus, respectively. Once electrodes are implanted, a stable baseline of evoked responses are elicited using single monophasic pulses (100 μs pulse duration) delivered at 3/min to the stimulating electrode. Field EPSPs are monitored until a stable baseline is achieved (about 20-30 min), after which a solution of test compound in HPCD is injected intraperitoneally and evoked field potentials are recorded. Evoked potentials are recorded for approximately 2 h following drug administration or until the amplitude of the field EPSP returns to baseline. In the latter instance, it is common that an iv administration is also carried out with an appropriate dose of the same test compound.

| Compound | In vitro Patch Clamp Electrophysiology EC2x (AMPA receptor [1]) | % Increase in the amplitude of the field EPSP in the CA1 region of rat hippocampal slice (AMPA receptors; @ 10 μM) | % increase in the amplitude of the field EPSP in rat dentate gyrus (AMPA receptor [2]; 5 mpk i.p.) | % Increase in the amplitude of the field EPSP in the CA1 region of rat hippocampal slice (AMPA receptors; @ 3 μM) | % increase in the amplitude of the field EPSP in rat dentate gyrus (AMPA receptor [2]; 5 mpk i.v.) |
| --- | --- | --- | --- | --- | --- |
| N#CCn1nnc2cc3c(cc2c1=O)OC1CCCN1C3=O (stereo not drawn) [Example 10, (4,11-Dioxo-4,6a,7,8,9,11-hexahydro-3H-pyrrolo[2′,1′:2,3][1,3]oxazino[6,5-g][1,2,3]benzotriazin-3-yl)acetonitrile] | 190 nM | 10% @ 10 μM | 12%^3 |  |  |
| O=C1c2cc3nnn(C4CC4)c(=O)c3cc2OC2CCCN12 (stereo not drawn) [Example 4, 3-Cyclopropyl-6a,7,8,9-tetrahydro-3H-pyrrolo[2′,1′:2,3][1,3]oxazino[6,5-g][1,2,3]benzotriazine-4,11-dione] | 400 nM |  |  | 5% @ 3 μM | 19%^4 |
| O=C1c2cc3nnn(CCn4cccn4)c(=O)c3cc2OC2CCCN12 (stereo not drawn) [Example 36, 3-[2-(1H-Pyrazol-1-yl)ethyl]-6a,7,8,9-tetrahydro-3H-pyrrolo[2′,1′:2,3][1,3]oxazino[6,5-g][1,2,3]benzotriazine-4,11-dione] | 100 nM |  |  | 12% @ 3 μM | 18%^4 |
| C[C@H](Cn1ncnn1)n1nnc2cc3c(cc2c1=O)OC1COCCN1C3=O (stereo partly drawn) [Example 64, 3-[(2R)-1-(2H-Tetrazol-2-yl)propan-2-yl]-6a,7,9,10-tetrahydro-3H-[1,4]oxazino[3′,4′:2,3][1,3]oxazino[6,5-g][1,2,3]benzotriazine-4,12-dione] | 170 nM |  | 30%^3 |  |  |
| C[C@H](Cn1ncnn1)n1nnc2cc3c(cc2c1=O)OC1CCCN1C3=O (stereo partly drawn) [Example 37A, 3-[(2R)-1-(2H-Tetrazol-2-yl)propan-2-yl]-6a,7,8,9-tetrahydro-3H-pyrrolo[2′,1′:2,3][1,3]oxazino[6,5-g][1,2,3]benzotriazine-4,11-dione] | 40 nM |  | 39%^3 |  |  |
| O=C1c2cc3nnn(CCc4cccc(F)c4)c(=O)c3cc2OC2CCCN12 (stereo not drawn) [Example 1, 3-[2-(3-Fluorophenyl)ethyl]-6a,7,8,9-tetrahydro-3H-pyrrolo[2′,1′:2,3][1,3]oxazino[6,5-g][1,2,3]benzotriazine-4,11-dione] | 3 nM |  | 24%^3 | 9% @ 3 μM |  |
| C#C[C@H](Cc1cc(F)cc(F)c1)n1nnc2cc3c(cc2c1=O)O[C@@H]1CCCN1C3=O [Example 16, (6aR)-3-[(2S)-1-(3,5-Difluorophenyl)but-3-yn-2-yl]-6a,7,8,9-tetrahydro-3H-pyrrolo[2′,1′:2,3][1,3]oxazino[6,5-g][1,2,3]benzotriazine-4,11-dione] | 3 nM |  | 34%^3 | 1% @ 3 μM |  |
| C[C@H](CSC#N)n1nnc2cc3c(cc2c1=O)OC1CCCN1C3=O (stereo partly drawn) [Example 35, (2R)-2-(4,11-Dioxo-4,6a,7,8.9,11-hexahydro-3H-pyrrolo[2′,1′:2,3][1,3]oxazino[6,5-g][1,2,3]benzotriazin-3-yl)propyl thiocyanate] | 80 nM |  | 19%^3 |  |  |
| C#CCn1nnc2cc3c(cc2c1=O)OC1CCCN1C3=O (stereo not drawn) [Example 9, 3-Prop-2-yn-1-yl-6a,7,8,9-tetrahydro-3H-pyrrolo[2′,1′:2,3][1,3]oxazino[6,5-g][1,2,3]benzotriazine4,11-dione] | 140 nM |  |  | 11% @ 3 μM | 11%^4 |
